The results in this text go back to US12448373B2, “Azetidinyl-acetamides as CXCR7 inhibitors” (CHEMOCENTRYX, INC., priority 2021, dated 2025).

In general, IC50 refers to the midpoint of a concentration-inhibition curve. Read a high IC50 as a need for much substance.

T1 sequence (P25106 whole entry): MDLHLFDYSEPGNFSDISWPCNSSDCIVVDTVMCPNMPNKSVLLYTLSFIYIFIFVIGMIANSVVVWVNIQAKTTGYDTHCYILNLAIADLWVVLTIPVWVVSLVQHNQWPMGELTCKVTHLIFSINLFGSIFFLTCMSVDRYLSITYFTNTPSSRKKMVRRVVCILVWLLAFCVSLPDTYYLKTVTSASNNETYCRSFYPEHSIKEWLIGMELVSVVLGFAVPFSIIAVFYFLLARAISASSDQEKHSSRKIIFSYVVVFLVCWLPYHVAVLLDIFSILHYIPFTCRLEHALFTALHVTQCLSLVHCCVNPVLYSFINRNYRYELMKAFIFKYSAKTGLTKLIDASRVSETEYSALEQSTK

The assay concerns the target T1, CXCR7 (Homo sapiens, UniProt P25106).
T1 construct: expressed in transfected cells; host or cells: CHO cells (CHO-CXCR7), transgenes maintained with Hygromycin B and G418
Briefly: CXCR7 β-arrestin recruitment assay in CHO-CXCR7 cells (ProLink/EA β-galactosidase complementation), induced by human SDF-1a. The class given is cell-based. To be noted: assay buffer, SDF-1a at EC50 concentration. Put shortly:
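SDF-1α-induced β-arrestin recruitment was measured by enzyme-fragment complementation (ProLink-CXCR7 with β-arrestin-EA) in stable CHO cells. Agonist was dosed at its EC50, determined the same day, alongside serially diluted compound for 1.5 h at 37 °C. Fluorogenic galactoside substrate (0.4 mM, 30 min) was read at 360/465 nm, with IC50 from 3-parameter nonlinear regression.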
In general terms: Recruitment of arrestin is a read-out of receptor activation apart from second messengers.
In the case of `CC(C)(O)CN1CC(CC(=O)NC(C)(C)c2ccc(F)cc2)(NC(=O)c2cc(-c3ccc(F)cc3F)on2)C1` [Example 1.248], the IC50 is 0.1 to 1 µM. The same measure for `CC(C)(NC(=O)CC1(NC(=O)c2cc(-c3ccc(F)cc3F)on2)CN([C@H]2CC[C@@](C)(O)CC2)C1)c1ccc(Cl)cc1` [Example 1.249]: 0.005 to 0.1 µM; for `CC(C)(NC(=O)CC1(NC(=O)c2cc(-c3ccc(F)cc3F)on2)CN([C@H]2CC[C@](C)(O)CC2)C1)c1ccc(Cl)cc1` [Example 1.250]: 0.1 to 1 µM; for `CC(C)(O)CN1CC(CC(=O)NC(C)(C)c2cccc(F)c2)(NC(=O)c2cc(-c3ccc(F)cc3F)on2)C1` [Example 1.251]: 0.005 to 0.1 µM.

For the compound `CC(C)(NC(=O)CC1(NC(=O)c2cc(-c3ccc(F)cc3F)on2)CN([C@H]2CC[C@@](C)(O)CC2)C1)c1ccc(F)cc1Cl` [Example 1.252], the IC50 is 0.005 to 0.1 µM.

The compound `CC(C)(NC(=O)CC1(NC(=O)c2cc(-c3ccc(F)cc3F)on2)CN([C@H]2CC[C@](C)(O)CC2)C1)c1ccc(F)cc1Cl` [Example 1.253] came in with an IC50 of 0.005 to 0.1 µM. As for `CC(C)(NC(=O)CC1(NC(=O)c2cc(-c3ccc(F)cc3F)on2)CN(C2CCC3(CC2)COC3)C1)c1ccc(F)cc1F` [Example 1.254], the figure is 0.1 to 1 µM; as for `CC(C)(O)CN1CC(CC(=O)NC(C)(C)c2ccccn2)(NC(=O)c2cc(-c3ccc(F)cc3F)on2)C1` [Example 1.255], 0.005 to 0.1 µM; as for `CC(C)(NC(=O)CC1(NC(=O)c2cc(-c3ccc(F)cc3F)on2)CN([C@H]2CC[C@@](C)(O)CC2)C1)c1ccc(F)c(F)c1` [Example 1.256], 0.005 to 0.1 µM. As to `CC(C)(NC(=O)CC1(NC(=O)c2cc(-c3ccc(F)cc3F)on2)CN([C@H]2CC[C@](C)(O)CC2)C1)c1ccc(F)c(F)c1` [Example 1.257], the IC50 was 0.005 to 0.1 µM. The same measure for `CC(C)(NC(=O)CC1(NC(=O)c2cc(-c3ccc(F)cc3F)on2)CN([C@H]2CC[C@](C)(O)CC2)C1)c1c(F)cccc1F` [Example 1.258]: 0.1 to 1 µM; for `CC(C)(NC(=O)CC1(NC(=O)c2cc(-c3ccc(F)cc3F)on2)CN([C@H]2CC[C@@](C)(O)CC2)C1)c1ccc(F)cc1` [Example 1.259]: 0.005 to 0.1 µM. The same measure for `CC(C)(NC(=O)CC1(NC(=O)c2cc(-c3ccc(F)cc3F)on2)CN([C@H]2CC[C@](C)(O)CC2)C1)c1ccc(F)cc1` [Example 1.260]: 0.005 to 0.1 µM; for `Cc1ccc(C(C)(C)NC(=O)CC2(NC(=O)c3cc(-c4ccc(F)cc4F)on3)CN([C@H]3CC[C@@](C)(O)CC3)C2)cc1C(F)(F)F` [Example 1.261]: 0.1 to 1 µM; for `Cc1ccc(C(C)(C)NC(=O)CC2(NC(=O)c3cc(-c4ccc(F)cc4F)on3)CN([C@H]3CC[C@](C)(O)CC3)C2)cc1C(F)(F)F` [Example 1.262]: 0.1 to 1 µM. On to `CC(C)(NC(=O)CC1(NC(=O)c2cc(-c3ccc(F)cc3F)on2)CN(C2CCCCC2)C1)c1ccc(F)cc1F` [Example 1.263], for which the IC50 lay within 1 to 20 µM. `CC(C)(O)CN1CC(CC(=O)NC(C)(C)c2ccc(F)cc2F)(NC(=O)c2cc(-c3ccc(F)cc3F)on2)C1` [Example 1.264] displayed an IC50 of 1 to 20 µM. As to `COc1ccc(F)cc1C(C)(C)NC(=O)CC1(NC(=O)c2cc(-c3ccc(F)cc3F)on2)CN([C@H]2CC[C@](C)(O)CC2)C1` [Example 1.266], the IC50 is below 0.005 µM. In turn, `CC(C)(NC(=O)CC1(NC(=O)c2cc(-c3ccc(F)cc3F)on2)CN([C@H]2CC[C@@](C)(O)CC2)C1)c1ccccc1` [Example 1.267] came in with an IC50 below 0.005 µM.

Compound `CC(C)(NC(=O)CC1(NC(=O)c2cc(-c3ccc(F)cc3F)on2)CN([C@H]2CC[C@](C)(O)CC2)C1)c1ccccc1` [Example 1.268] had an IC50 below 0.005 µM. The same measure for `CC(C)(NC(=O)CC1(NC(=O)c2cc(-c3ccc(F)cc3F)on2)CN(C2CCC3(CC2)CC3)C1)c1ccccn1` [Example 1.269]: 0.005 to 0.1 µM. The same measure for `CC(C)(NC(=O)CC1(NC(=O)c2cc(-c3ccc(F)cc3F)on2)CN(C2CCCCC2)C1)c1ncccn1` [Example 1.270]: 0.005 to 0.1 µM.

As to `CC(C)(NC(=O)CC1(NC(=O)c2cc(-c3ccc(F)cc3F)on2)CN(C2CCCCC2)C1)c1cccc(C(F)(F)F)c1` [Example 1.271], the IC50 lay in the range of 0.1 to 1 µM.

`COc1cccc(C(C)(C)NC(=O)CC2(NC(=O)c3cc(-c4ccc(F)cc4F)on3)CN(C3CCCCC3)C2)n1` [Example 1.272] came in with an IC50 of 0.005 to 0.1 µM. `Cn1cc(C(C)(C)NC(=O)CC2(NC(=O)c3cc(-c4ccc(F)cc4F)on3)CN(C3CCCCC3)C2)cn1` [Example 1.273] displayed an IC50 of 0.005 to 0.1 µM.

In the case of `CC(C)(NC(=O)CC1(NC(=O)c2cc(-c3ccc(F)cc3F)on2)CN([C@@H]2CCCCC2(C)C)C1)c1ccccn1` [Example 1.274], the IC50 was below 0.005 µM. As for `CC(C)(NC(=O)CC1(NC(=O)c2cc(-c3ccc(F)cc3F)on2)CN([C@H]2CCCCC2(C)C)C1)c1ccccn1` [Example 1.275], the figure is below 0.005 µM; as for `CC(C)(NC(=O)CC1(NC(=O)c2cc(-c3ccc(F)cc3F)on2)CN(C2CCCCC2)C1)c1nccs1` [Example 1.276], 0.005 to 0.1 µM. On to `CC1(O)CCC(N2CC(CC(=O)NC3(c4ncccn4)CC3)(NC(=O)c3cc(-c4ccc(F)cc4F)on3)C2)CC1` (centres unmarked) [Example 1.277], for which the IC50 was below 0.005 µM. As for `C[C@]1(O)CC[C@@H](N2CC(CC(=O)NCc3c[nH]c4ccccc34)(NC(=O)c3cc(-c4ccc(F)cc4F)on3)C2)CC1` [Example 1.278], the figure is 1 to 20 µM; as for `C[C@]1(O)CC[C@H](N2CC(CC(=O)NCc3c[nH]c4ccccc34)(NC(=O)c3cc(-c4ccc(F)cc4F)on3)C2)CC1` [Example 1.279], 0.005 to 0.1 µM. The same measure for `CN1CCC(N2CC(CC(=O)NC(C)(C)c3ccccn3)(NC(=O)c3cc(-c4ccc(F)cc4F)on3)C2)CC1` [Example 1.280]: 0.1 to 1 µM; for `Cc1ccc(C(C)(C)NC(=O)CC2(NC(=O)c3cc(-c4ccc(F)cc4F)on3)CN(C3CCCCC3)C2)cn1` [Example 1.281]: 0.005 to 0.1 µM; for `O=C(CC1(NC(=O)c2cc(-c3ccc(F)cc3F)on2)CN(C2CCCCC2)C1)N[C@@H](C(=O)O)c1ccccc1` [Example 1.282]: 1 to 20 µM. The same measure for `O=C(CC1(NC(=O)c2cc(-c3ccc(F)cc3F)on2)CN(C2CCCCC2)C1)N[C@H](C(=O)O)c1ccccc1` [Example 1.283]: 1 to 20 µM; for `CC(C)(NC(=O)CC1(NC(=O)c2cc(-c3ccc(F)cc3F)on2)CN(C2CCCCC2)C1)c1ccc(Cl)nc1` [Example 1.284]: 0.005 to 0.1 µM; for `COC1(C)CCC(N2CC(CC(=O)NC(C)(C)c3ccccn3)(NC(=O)c3cc(-c4ccc(F)cc4F)on3)C2)CC1` (centres unmarked) [Example 1.285]: 0.005 to 0.1 µM. `CC(C)(NC(=O)CC1(NC(=O)c2cc(-c3ccc(F)cc3F)on2)CN([C@H]2CCC[C@@H](O)C2)C1)c1ccccn1` [Example 1.286] registered an IC50 of 0.005 to 0.1 µM.

In turn, `CC(C)(NC(=O)CC1(NC(=O)c2cc(-c3ccc(F)cc3F)on2)CN([C@H]2CC[C@](C)(O)CC2)C1)c1ccc(F)cc1F` [Example 1.287] showed an IC50 of 0.005 to 0.1 µM. As for `CC(C)(NC(=O)CC1(NC(=O)c2cc(-c3ccc(F)cc3F)on2)CN([C@H]2CC[C@@](C)(O)CC2)C1)c1ccc(F)cc1F` [Example 1.288], the figure is 0.005 to 0.1 µM. As for `CC(C)(NC(=O)CC1(NC(=O)c2cc(-c3ccc(F)cc3F)on2)CN([C@H]2CC[C@](C)(O)CC2)C1)c1cccc(F)c1` [Example 1.289], the figure is below 0.005 µM.
